Reference: BindingDB's records for doi:10.1096/fasebj.10.12.8903510 (Roche Bioscience, 1996)

Target: 5-hydroxytryptamine receptor 4 (Cavia porcellus, UniProt O70528)
Sequence (O70528 whole entry): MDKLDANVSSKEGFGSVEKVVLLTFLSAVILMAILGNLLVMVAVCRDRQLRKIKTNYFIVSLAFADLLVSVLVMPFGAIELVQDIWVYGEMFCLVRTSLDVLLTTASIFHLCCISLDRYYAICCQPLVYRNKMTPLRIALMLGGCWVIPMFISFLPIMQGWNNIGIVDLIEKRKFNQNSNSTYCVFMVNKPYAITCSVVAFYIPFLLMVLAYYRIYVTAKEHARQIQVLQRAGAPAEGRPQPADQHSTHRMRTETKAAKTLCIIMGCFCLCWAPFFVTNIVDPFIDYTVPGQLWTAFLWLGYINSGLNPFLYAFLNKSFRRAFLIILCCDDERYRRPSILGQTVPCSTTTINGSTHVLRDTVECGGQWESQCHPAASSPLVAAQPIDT

Compound	Ki [nM]
COc1cc(N)c(Cl)cc1C(=O)OCCCN1CCCCC1	3.98
COc1cc(COc2cc(N)c(Cl)cc2C(=O)CCCCN2CCCCC2)cc(OC)c1 [RS-67532]	1.99
CCCCN1CCC(CNC(=O)c2c3n(c4ccccc24)CCCO3)CC1 [SB-207266]	0.39
CCN(CC)CCOC(=O)c1cc(Cl)c(N)cc1OC [SDZ-205557]	2.51

Now those with a lower Ki, led by results:

Ki [nM]	Compound
0.01	CCCCN1CCC(COC(=O)c2cc(Cl)c(N)c3c2OCCO3)CC1 [CAS_121881]
0.06	Cn1cc(C(=O)OCC2CCN(CCNS(C)(=O)=O)CC2)c2ccccc21 [GR 113808]
0.03	COc1[nH]c2ccc(F)cc2c1C(=O)OCC1CCN(CCNS(C)(=O)=O)CC1 [GR-125487]
